Reference: patent US9029366B2, “Substituted bicyclic alkoxy pyrazole analogs as allosteric modulators of mGluR5 receptors” (Vanderbilt University, priority 2012, dated 2015)

Tests used:
human mGluR5 = human mGluR5 (Homo sapiens, UniProt P41594); test: Cell-based functional Ca2+ mobilization assay (FDSS), potentiation of glutamate EC20 response, HEK293A cells transfected with human mGluR5a (H10H or H12H cell line); settings: H10H cell line expressing recombinant human mGluR5, in presence of glutamate EC20, ** = compound is an antagonist; for EC50: read-out: pEC50 (converted); for Emax: HEK293-A
Description: Human embryonic kidney (HEK) cells transfected with rat mGluR5 were plated in clear bottom assay plates for assay in a Functional Drug Screening System (FDSS). In the alternative assay, HEK cells transfected with human mGluR5 were plated for assay in the FDSS. In some cases the HEK cells transfected with human mGluR5 are the H10H cell line. Alternatively, the HEK cells transfected with human mGluR5 are the H12H cell line. […] The cells were loaded with a Ca^2+-sensitive fluorescent dye (e.g., Fluo-4), and the plates were washed and placed in the FDSS instrument. After establishment of a fluorescence baseline for about three seconds, the compounds of the present invention were added to the cells, and the response in cells was measured. Five minutes later, an mGluR5 agonist (e.g., glutamate, 3,5-dihydroxyphenylglycine, or quisqualate) was added to the cells, and the response of the cells was measured.
The above described assay can be operated in two modes. In the first mode, a range of concentrations of the present compounds were added to cells, followed by a single fixed concentration of agonist. If a compound acted as a potentiator, an EC50 value for potentiation and a maximum extent of potentiation by the compound at this concentration of agonist was determined by non-linear curve fitting. In the second mode, several fixed concentrations of the present compounds were added to various wells on a plate, followed by a range of concentrations of agonist for each concentration of present compound; the EC50 values for the agonist at each concentration of compound were determined by non-linear curve fitting. A decrease in the EC50 value of the agonist with increasing concentrations of the present compounds (a leftward shift of the agonist concentration-response curve) is an indication of the degree of mGluR5 potentiation at a given concentration of the present compound. An increase in the EC50 value of the agonist with increasing concentrations of the present compounds (a rightward shift of the agonist concentration-response curve) is an indication of the degree of mGluR5 antagonism at a given concentration of the present compound. The second mode also indicates whether the present compounds also affect the maximum response to mGluR5 to agonists.
Human mGluR5a cDNA in pCMV6-XL6 mammalian expression plasmid was purchased from OriGene Technologies, Inc. (catalogue number SC326357) and subcloned into pcDNA3.1(−). Human embryonic kidney (HEK)293A cells were then transfected with human mGluR5a pcDNA3.1(−) using LipofectAmine2000 (Invitrogen) and monoclones were selected and tested for functional response using a Ca^2+ mobilization assay. Monoclones were named for the species (“H” for human) plus the location on the plate (e.g. “10H”).
HEK cells transfected with the human mGluR5a receptor (H10H or H12H cell line) were plated at 15,000 cells/well in clear-bottomed poly-D-lysine-coated assay plates (BD Falcon) in glutamate-glutamine-free growth medium and incubated overnight at 37° C. and 5% CO2. Cell-lines used were either the H10H or H12H cell-lines expressing the human mGluR5 receptor. The following day, the growth medium was removed and the cells were washed with assay buffer containing 1× Hank's balanced salt solution (Invitrogen, Carlsbad, Calif.), 20 mM HEPES, 2.5 mM probenecid, pH 7.4 and left with 20 μL of this reagent. Following this step, the cells were loaded with calcium indicator dye, fluo-4 AM, to a final concentration of 2 μM and incubated for 40-45 min at 37° C. The dye solution was removed and replaced with assay buffer. Cell plates were held for 10-15 min at room temperature and were then loaded into the Functional Drug Screening System 6000 (FDSS 6000, Hamamatsu, Japan).
After establishment of a fluorescence baseline for about 3 seconds, the compounds of the present invention were added to the cells, and the response in cells was measured.

[1] = % of maximal glutamate response

Sequence of human mGluR5 (P41594 21-1180 isoform P41594-2 limits assumed): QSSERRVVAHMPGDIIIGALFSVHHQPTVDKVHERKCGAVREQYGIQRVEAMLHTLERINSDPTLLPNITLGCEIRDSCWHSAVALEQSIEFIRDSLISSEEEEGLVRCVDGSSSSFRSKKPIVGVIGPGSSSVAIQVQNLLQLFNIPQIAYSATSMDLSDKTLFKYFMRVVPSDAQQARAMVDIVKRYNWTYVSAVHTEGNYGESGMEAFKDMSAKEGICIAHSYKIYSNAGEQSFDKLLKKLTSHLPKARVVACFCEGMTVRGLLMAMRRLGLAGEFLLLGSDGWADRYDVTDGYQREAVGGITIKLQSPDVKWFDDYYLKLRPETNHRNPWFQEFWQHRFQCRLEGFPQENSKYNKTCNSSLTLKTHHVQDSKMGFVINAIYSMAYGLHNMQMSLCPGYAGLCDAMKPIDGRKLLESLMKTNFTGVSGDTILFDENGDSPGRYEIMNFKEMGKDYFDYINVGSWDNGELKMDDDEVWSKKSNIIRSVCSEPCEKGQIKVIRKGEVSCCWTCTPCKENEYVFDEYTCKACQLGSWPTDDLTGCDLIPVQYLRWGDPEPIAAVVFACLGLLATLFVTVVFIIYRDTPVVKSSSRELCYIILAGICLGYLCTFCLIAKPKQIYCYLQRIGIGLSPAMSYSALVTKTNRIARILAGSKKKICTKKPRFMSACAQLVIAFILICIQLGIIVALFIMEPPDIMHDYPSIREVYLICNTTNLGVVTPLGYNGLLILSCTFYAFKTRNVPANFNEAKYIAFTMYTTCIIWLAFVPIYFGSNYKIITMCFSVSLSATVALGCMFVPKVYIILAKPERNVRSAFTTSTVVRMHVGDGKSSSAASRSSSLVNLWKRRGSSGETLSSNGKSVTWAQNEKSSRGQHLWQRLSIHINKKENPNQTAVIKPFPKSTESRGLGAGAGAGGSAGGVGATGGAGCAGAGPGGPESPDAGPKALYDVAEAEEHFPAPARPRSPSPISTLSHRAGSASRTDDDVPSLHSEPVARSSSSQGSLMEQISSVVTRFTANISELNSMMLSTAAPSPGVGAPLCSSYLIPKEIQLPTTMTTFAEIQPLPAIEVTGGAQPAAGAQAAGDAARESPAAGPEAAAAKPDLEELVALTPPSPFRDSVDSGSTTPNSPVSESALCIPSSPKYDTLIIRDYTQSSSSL

Row | Compound | melting point [°C] | EC50 (human mGluR5) [nM] | Emax (human mGluR5; [1]) [%] | Emax (%) (human mGluR5; [1]) | pEC50 (human mGluR5)
1 | Cc1nccc(C(=O)N2CCn3nc(OCc4ccccc4)cc3C2)n1 [Example B31] | 134 | > 30200 | 28 | – | –
2 | COc1cccc(COc2cc3n(n2)CCN(C(=O)c2ccc(F)cc2)C3)c1 [Example B16] | 120.8 | 1410 | 49 | – | –
3 | O=C(c1ccc(F)cc1)N1CCn2nc(OCc3ccc(F)cc3)cc2C1 [Example B9] | 165.4 | 479 | 54 | – | –
4 | Cc1cc(COc2cc3n(n2)CCN(C(=O)c2ccc(F)cc2)C3)ccn1 [Example B4, 5-[(4-fluorophenyl)carbonyl]-2-[(2-methylpyridin-4-yl)methoxy]-4,5,6,7-tetrahydropyrazolo[1,5-a]pyrazine] | 103.4 | > 10000 | 26 | – | –
5 | O=C(c1ccc(F)cc1)N1CCn2nc(OCc3cccc(F)c3)cc2C1 [Example B10] | > 300 | 89.1 | 62 | – | –
6 | N#Cc1cc(F)cc(C(=O)N2CCn3nc(OCc4ccccc4)cc3C2)c1 [Example B6] | 117.6 | > 30200 | 24 | – | –
7 | Cc1ccc(C(=O)N2CCn3nc(OCc4ccccc4)cc3C2)cn1 [Example B33] | 104.6 | 3890 | 44 | – | –
8 | Cc1cccc(C(=O)N2CCn3nc(OCc4ccccc4)cc3C2)n1 [Example B32] | 81.2 | > 10000 | 32 | – | –
9 | Cc1ncccc1C(=O)N1CCn2nc(OCc3ccccc3)cc2C1 [Example B34] | 129.2 | > 30200 | 28 | – | –
10 | O=C(c1ncccc1Cl)N1CCn2nc(OCc3ccccc3)cc2C1 [Example B29] | 135.1 | > 30200 | 27 | – | –
11 | COc1ccccc1COc1cc2n(n1)CCN(C(=O)c1ccc(F)cc1)C2 [Example B17] | 135.6 | > 10000 | 47 | – | –
12 | COc1ccc(C(=O)N2CCn3nc(OCc4ccccc4)cc3C2)cn1 [Example B35] | 138.6 | > 30200 | 27 | – | –
13 | Cc1ccc(COc2cc3n(n2)CCN(C(=O)c2ccc(F)cc2)C3)cc1 [Example B12] | 156.9 | > 30200 | 28 | – | –
14 | O=C(c1ccc(F)cn1)N1CCn2nc(OCc3ccccc3)cc2C1 [Example B28] | 123 | 1510 | 60 | – | –
15 | O=C(c1cccc(F)c1)N1CCn2nc(OCc3ccccc3)cc2C1 [Example B2, 2-(benzyloxy)-5-[(3-fluorophenyl)carbonyl]-4,5,6,7-tetrahydropyrazolo[1,5-a]pyrazine] | 120.8 | 251 | 46 | – | –
16 | O=C(c1ccccc1)N1CCn2nc(OCc3ccccc3)cc2C1 [Example B50] | – | 141 | 55 | – | –
17 | COc1ccc(C(=O)N2CCn3nc(OCc4ccccc4)cc3C2)cc1F [Example B45] | – | > 30200 | 19 | – | –
18 | O=C(c1cnc[nH]1)N1CCn2nc(OCc3ccccc3)cc2C1 [Example B58] | – | > 30200 | 22 | – | –
19 | 1-(2-(benzyloxy)-6,7-dihydropyrazolo[1,5-a]pyrazin-5(4H)-yl)-2-(tert-butylamino)ethanone [Example B24] | – | – | – | 28 | <4.52
20 | O=C(c1ccc(Cl)cc1)N1CCn2nc(OCc3ccccc3)cc2C1 [Example B40] | – | 269 | 46 | – | –
21 | O=C(c1ccncc1)N1CCn2nc(OCc3ccccc3)cc2C1 [Example B62] | – | 1860 | 20 | – | –

Results, then the compound that gave them:

Row | melting point [°C] | EC50 (human mGluR5) [nM] | Emax (human mGluR5; [1]) [%] | Emax (%) (human mGluR5; [1]) | pEC50 (human mGluR5) | Compound
22 | 116.8 | > 30200 | 16 | – | – | N#Cc1cccc(COc2cc3n(n2)CCN(C(=O)c2ccccc2Cl)C3)c1 [Example B131]
23 | 135.3 | – | 58 | – | – | O=C(c1ccc(F)c(C(F)(F)F)c1)N1CCn2nc(OCc3ccccc3)cc2C1 [Example B109]
24 | 103.3 | 166 | 37 | – | – | N#Cc1cccc(COc2cc3n(n2)CCN(C(=O)c2cccc(F)c2)C3)c1 [Example B106]
25 | 124 | > 30200 | 15 | – | – | N#Cc1cccc(COc2cc3n(n2)CCN(C(=O)c2cc(F)cc(F)c2)C3)c1 [Example B119]
26 | 154.7 | 61.7 | 25 | – | – | O=C(c1cc(F)cc(F)c1)N1CCn2nc(OCc3cccc(F)c3)cc2C1 [Example B94]
27 | 117 | 112 | 66 | – | – | O=C(c1cccc(Cl)c1)N1CCn2nc(OCc3cccc(F)c3)cc2C1 [Example B98]
28 | 131 | 331 | 48 | – | – | O=C(c1ccccc1)N1CCn2nc(OCc3ccc(F)cc3)cc2C1 [Example B97]
29 | 123.7 | 417 | 72 | – | – | O=C(c1cc(F)ccc1F)N1CCn2nc(OCc3ccccc3)cc2C1 [Example B114]
30 | 97.1 | > 30200 | 9 | – | – | COc1cccc(C(=O)N2CCn3nc(OCc4ccccc4)cc3C2)n1 [Example B82]
31 | 165.2 | 138 | 44.5 | – | – | O=C(c1cc(F)cc(F)c1)N1CCn2nc(OCc3ccccc3)cc2C1 [Example B104]
32 | 155.6 | > 30200 | 30 | – | – | N#Cc1ccc(COc2cc3n(n2)CCN(C(=O)c2ccccc2)C3)cc1 [Example B110]
33 | 115.4 | 97.7 | 68 | – | – | O=C(c1ccc(F)cc1F)N1CCn2nc(OCc3cccc(F)c3)cc2C1 [Example B129]
34 | 182.1 | 148 | 76 | – | – | O=C(c1ccc(F)cc1F)N1CCn2nc(OCc3ccccc3)cc2C1 [Example B102]
35 | 132.4 | 141 | 71 | – | – | O=C(c1ccccc1F)N1CCn2nc(OCc3ccccc3F)cc2C1 [Example B134]
36 | 125.2 | 380 | 49 | – | – | O=C(c1cccc(Cl)c1)N1CCn2nc(OCc3ccc(F)cc3)cc2C1 [Example B111]
37 | > 300 | > 10000 | 40 | – | – | O=C(c1ccc(F)cc1)N1CCCn2nc(OCc3ccncc3)cc2C1 [Example B89]
38 | – | 347 | 65 | – | – | Cn1cc(C(=O)N2CCn3nc(OCc4cccc(F)c4)cc3C2)cc1Cl [Example B93]
39 | – | 537 | 52 | – | – | Cn1ccc(C(=O)N2CCn3nc(OCc4cccc(F)c4)cc3C2)c1 [Example B92]
40 | – | 1320 | 32 | – | – | Cn1cc(C(=O)N2CCn3nc(OCc4cccc(F)c4)cc3C2)c2ccccc21 [Example B79]
41 | – | > 30200 | 28 | – | – | CC(=O)N1CCn2nc(OCc3ccccc3)cc2C1 [Example B108]
42 | – | 22.9 | 65 | – | – | Cn1c(Cl)ccc1C(=O)N1CCn2nc(OCc3cccc(F)c3)cc2C1 [Example B80, (5-chloro-1-methyl-1H-pyrrol-2-yl)-[2-(3-fluoro-benzyloxy)-6,7-dihydro-4H-pyrazolo[1,5-a]pyrazin-5-yl]-methanone]
43 | – | > 30200 | 15 | – | – | CO[C@](C(=O)N1CCn2nc(OCc3ccccc3)cc2C1)(c1ccccc1)C(F)(F)F [Example B87]
